Laboratory results published in US5296492A, “Certain chroman derivatives useful for treating symptoms caused by contraction of smooth muscles, circulatory diseases or epilepsy” (Nippon Kayaku Kabushiki Kaisha, priority 1991, dated 1994).
Like-named read-outs stand apart in the source and are kept apart here.

Experiments:
rat aorta = test: Spasmolytic effect in isolated rat aorta; format: cell-based, male SD rat; settings: 20 mM KCl contraction, 37° C., maximal inhibition with papaverine hydrochloride 10^-4 M = 100, mean value±standard error, n = 3, read-out: -log IC50 (spasmolytic effect on rat aorta contracted with 20 mM KCl) (converted)
Experimental: (§1) 1. Spasmolytic effect in isolated rat aorta and dog coronary artery
The thoracic aorta of male SD rat was isolated and cut into 3 mm wide ring preparations. Each preparation was mounted in a 10 ml organ bath filled with Krebs-Henseleit solution by applying a resting tension of 1.0 g. The nutrient solution was maintained at 37° C. and aerated with a 95% O2 /5% CO2 gas. The isometric tension of the preparation was measured with a FD pickup and recorded on a recorder.
(§2) After about one hour of equilibration time, a compound of this invention was cumulatively administered to the preparation contracted with 20 mM KCl, and its spasmolytic effect was examined. The spasmolytic action of the compound of this invention was expressed as percentage of inhibition, taking the maximal inhibition obtained with papavarine hydrochloride (10^-4 M) as 100. The IC50 value (50% inhibition) for the compound of this invention was determined from the concentration-response curve fitted by non-linear regressions with a personal computer, and its potency expressed in terms of -log IC50 was shown as [mean value±standard error].

dog coronary artery = test: Spasmolytic effect in isolated dog coronary artery; format: cell-based, mongrel dogs; settings: for spasmolytic effect on a contraction caused by 80 mM KCl (in words): potencies compared with 20 mM KCl; for IC50: Canis lupus familiaris, mean value±standard error
Experimental: as §1, §2
Ring preparations of coronary artery from mongrel dogs of either sex were prepared and isometric tension of the preparation was measured by the same method as above, except that the resting tension was adjusted to 1.5 g. For estimating the mechanism of action, the effect on the contraction caused by 80 mM KCl was also studied.

guinea-pig trachea = test: Bronchodilator effect in isolated tracheal smooth muscle (guinea-pig trachea, leukotriene D4 contraction); format: cell-based, Hartley male guinea-pigs
Experimental: 2. Bronchodilator effect in isolated tracheal smooth muscle
Hartley male guinea-pigs (NISSEIKEN) were stunned by a blow to the head and their tracheas were removed. Each trachea was carefully made into 20 small pieces so as not to injure them, and five pieces of them were linked together with a yarn to prepare tracheal strip chain. The preparation was suspended in 15 ml of an organ bath filled with a modified Krebs-Henseleitsolution containing indomethacin (b 5×10^-6 M) by applying a tension of 0.5 g. The solution was maintained at 35° C. and aerated with a 95% O2 /5% CO2 gas. After an equilibration time of one hour, the experiment was carried out. The results were isometrically recorded on a Multipen Recorder (R-64VL, mfd. by Rika Denki Kogyo) through a transducer (TD-112S, mfd. by Nihon Kohden) and an input box (JD-112S, mfd. by Nihon Kohden).
Each preparation was made to attain the maximal contraction with carbachol (3×10^-6 and 10^-5 M) and washed. When it reached an equilibrium, it was exposed to L-cysteine as an aminopeptidase inhibitor (3×10^-3 M). After thirty minutes, a contractive reaction was made to take place with leukotriene D4 (3×10^-9 M). When the contraction had reached a constant value, a test drug (10^-8 to 3×10^-5 M) was cumulatively applied into the bath at a dose ratio of 3. Finally, the maximal relaxation of each preparation was confirmed with papaverine.
The relaxations given by each test drug at various concentrations were converted to percentages of relaxation, taking the maximal relaxation obtained with papaverine as 100. The maximal relaxation (%) of each test drug and -log of ED30 (M) which is the dose of each test drug giving a percentage of relaxation of 30% as determined by a linear regression method from percentages of relaxation at two different doses are shown below.

[1] = Acute toxicity in mice (up and down method); settings: mouse, in vivo, iv
Experimental: Acute toxicity of the test drug was evaluated in mice, following intravenous administration. The LD50 of the test drug was determined using up and down method.

[2] = 20 mM KCl contraction, n = 3 (n = 4 for Compound No. 81), read-out: -log IC50 (spasmolytic effect on dog coronary artery, 20 mM KCl) (converted)
[3] = 80 mM KCl contraction, n = 3, read-out: -log IC50 (spasmolytic effect on dog coronary artery, 80 mM KCl) (converted)

`CC1(C)Oc2ccc(C#N)cc2[C@@H](n2ccc(CO[N+](=O)[O-])cc2=O)[C@@H]1O` (relative stereo) [Compound No. 2, trans-3-hydroxy-6-cyano-3,4-dihydro-2,2-dimethyl-4-(1,2-dihydro-2-oxo-4-nitroxymethyl-1-pyridinyl)-2H-benzo[b]pyran] gave an IC50 (rat aorta) of 51.3 nM.
`CC(=O)O[C@H]1[C@H](n2ccc(CO[N+](=O)[O-])cc2=O)c2cc(C#N)ccc2OC1(C)C` (relative stereo) [Compound No. 44, trans-3-acetoxy-6-cyano-3,4-dihydro-2,2-dimethyl-4-(1,2-dihydro-2-oxo-4-nitroxymethyl-1-pyridinyl)-2H-benzo[b]pyran] showed an IC50 (rat aorta) of 6610 nM.
For `CC1(C)C=C(n2ccc(CO[N+](=O)[O-])cc2=O)c2cc(C#N)ccc2O1` [Compound No. 69, 6-cyano-2,2-dimethyl-4-(1,2-dihydro-2-oxo-4-nitroxymethyl-1-pyridinyl)-2H-benzo[b]pyran], the IC50 (rat aorta) was 3.31 nM, the “spasmolytic effect on a contraction caused by 80 mM KCl (in words)” value (“spasmolytic effect” for short) (dog coronary artery) was “also exhibited a spasmolytic effect on a contraction caused by 80 mM KCl, though their potencies are lower than those against the contraction caused by 20 mM KCl” and the IC50 (dog coronary artery; [2]) was 8.71 nM. The IC50 (dog coronary artery; [3]) was 12600 nM, the EC30 (guinea-pig trachea; Cavia porcellus, leukotriene D4 (3×10^-9 M), dose giving 30% relaxation, papaverine maximal relaxation = 100, value is a negative log, read-out: Relaxing action on the contraction caused by leukotriene D4: -log[EX30 (M)] (converted)) was 2.24e-07 M and the Emax (guinea-pig trachea; Cavia porcellus, leukotriene D4 (3×10^-9 M), test drug 10^-8 to 3×10^-5 M cumulatively, papaverine maximal relaxation = 100, read-out: Relaxing action on the contraction caused by leukotriene D4: Maximal relaxation %) was 93.9%. The “relaxant effect on isolated guinea pig tracheal smooth muscle contracted by leukotriene D4 / bronchodilator activity (in words)” value (guinea-pig trachea; leukotriene D4) was “strong relaxant effect” and the LD50 [1] was 81.2 mg/kg.
`CC1(C)C=C(n2cc(CO[N+](=O)[O-])ccc2=O)c2cc(C#N)ccc2O1` [Compound No. 70, 6-cyano-2,2-dimethyl-4-(1,2-dihydro-2-oxo-5-nitroxymethyl-1-pyridinyl)-2H-benzo[b]pyran] showed an IC50 (rat aorta) of 135 nM.
With `CC(O[N+](=O)[O-])c1ccn(C2=CC(C)(C)Oc3ccc(C#N)cc32)c(=O)c1` (centres unmarked) [Compound No. 72, 6-cyano-2,2-dimethyl-4-{1,2-dihydro-2-oxo-4-(1-nitroxyethyl)-1-pyridinyl}-2H-benzo[b]pyran] the IC50 (rat aorta) was 67.6 nM.
For `CC1(C)C=C(n2ccc(CCCO[N+](=O)[O-])cc2=O)c2cc(C#N)ccc2O1` [Compound No. 77, 6-cyano-2,2-dimethyl-4-{1,2-dihydro-2-oxo-4-(3-nitroxypropyl)-1-pyridinyl}-2H-benzo[b]pyran], the IC50 (rat aorta) was 12.6 nM, the “spasmolytic effect” value (dog coronary artery) was “also exhibited a spasmolytic effect on a contraction caused by 80 mM KCl, though their potencies are lower than those against the contraction caused by 20 mM KCl” and the IC50 (dog coronary artery; [2]) was 2.14 nM. For the same compound, the IC50 (dog coronary artery; [3]) was 380 nM.
For `CC1(C)C=C(n2ccc(CCCCO[N+](=O)[O-])cc2=O)c2cc(C#N)ccc2O1` [Compound No. 81, 6-cyano-2,2-dimethyl-4-{1,2-dihydro-2-oxo-4-(4-nitroxybutyl)-1-pyridinyl}-2H-benzo[b]pyran], the IC50 (rat aorta) was 39.8 nM, the “spasmolytic effect” value (dog coronary artery) was “also exhibited a spasmolytic effect on a contraction caused by 80 mM KCl, though their potencies are lower than those against the contraction caused by 20 mM KCl” and the IC50 (dog coronary artery; [2]) was 0.0316 nM. The IC50 (dog coronary artery; [3]) was 229 nM.
In the case of `CC1(C)C=C(n2ccc(C(CCO[N+](=O)[O-])O[N+](=O)[O-])cc2=O)c2cc(C#N)ccc2O1` (centres unmarked) [Compound No. 91, 6-cyano-2,2-dimethyl-4-{1,2-dihydro-2-oxo-4-(1,3-dinitroxypropyl)-1-pyridinyl}-2H-benzo[b]pyran], the IC50 (rat aorta) is reported as 102 nM.
`CC1(C)C=C(n2ccc(CO[N+](=O)[O-])cc2=O)c2cc(C(F)(F)F)ccc2O1` [Compound No. 105, 6-trifluoromethyl-2,2-dimethyl-4-(1,2-dihydro-2-oxo-4-nitroxymethyl-1-pyridinyl)-2H-benzo[b]pyran] gave an IC50 (rat aorta) of 5.89 nM.
`CC1(C)C=C(n2cccc(CO)c2=O)c2cc(C#N)ccc2O1` [Compound No. 160, 6-cyano-2,2-dimethyl-4-(1,2-dihydro-2-oxo-3-hydroxymethyl-1-pyridinyl)-2H-benzo[b]pyran] gave an IC50 (rat aorta) of 813 nM.
Compound `CC1(C)C=C(n2ccc(CO)cc2=O)c2cc(C#N)ccc2O1` [Compound No. 161, 6-cyano-2,2-dimethyl-4-(1,2-dihydro-2-oxo-4-hydroxymethyl-1-pyridinyl)-2H-benzo[b]pyran] has an IC50 (rat aorta) of 525 nM.
`CC1(C)C=C(n2cc(CO)ccc2=O)c2cc(C#N)ccc2O1` [Compound No. 162, 6-cyano-2,2-dimethyl-4-(1,2-dihydro-2-oxo-5-hydroxymethyl-1-pyridinyl)-2H-benzo[b]pyran] gave an IC50 (rat aorta) of 138 nM.
In the case of `C=Cc1ccn(C2=CC(C)(C)Oc3ccc(C#N)cc32)c(=O)c1` [Compound No. 190, 6-cyano-2,2-dimethyl-4-(1,2-dihydro-2-oxo-4-vinyl-1-pyridinyl)-2H-benzo[b]pyran], the IC50 (rat aorta) is reported as 60.3 nM.
`CC1(C)C=C(n2ccc(C=O)cc2=O)c2cc(C#N)ccc2O1` [Compound No. 191, 6-cyano-2,2-dimethyl-4-(1,2-dihydro-2-oxo-4-formyl-1-pyridinyl)-2H-benzo[b]pyran] showed an IC50 (rat aorta) of 447 nM.
In the case of `CC1(C)C=C(n2ccc(CCCO)cc2=O)c2cc(C#N)ccc2O1` [Compound No. 192, 6-cyano-2,2-dimethyl-4-(1,2-dihydro-2-oxo-4-(3-hydroxypropyl)-1-pyridinyl}-2H-benzo[b]pyran], the IC50 (rat aorta) is reported as 1120 nM.
Work on `CC1(C)C=C(n2ccc(CCCCO)cc2=O)c2cc(C#N)ccc2O1` [Compound No. 193, 6-cyano-2,2-dimethyl-4-{1,2-dihydro-2-oxo-4-(4-hydroxybutyl)-1-pyridinyl}-2H-benzo[b]pyran] yielded an IC50 (rat aorta) of 1350 nM.
